The values that follow come from patent US9682938B2, “Pyrazolone derivatives as nitroxyl donors” (Cardioxyl Pharmaceuticals, Inc., priority 2014, dated 2017).

SMILES strings stand for the structures. Several values for one entry are separate records, joined by “and”; a condition that tells them apart may be missing. Equal values may be shown once.

Data set [1] can be described thus: Nitroxyl production via 1H NMR protocol using TXPTS (NMR half-lives). To be noted: phosphate buffer containing TXPTS (HNO trap); pH 7.4, 0.25 M phosphate buffer, 5 mM TXPTS, 1 mM compound, 37° C., spectra over 8 hours; read-out: NMR-T1/2. In kind it is physicochemical. On the procedure:
The ^1H NMR procedure used was based on an HPLC protocol developed by S. Bruce King and coworkers (Reisz et al., Org. Lett. 11:2719-2721 (2009), Reisz et al., J. Am. Chem. Soc. 133:11675-11685 (2011) and Guthrie et al., J. Org. Chem. 80:1338-1348 (2015)). According to this procedure, the amount of HNO released from a pyrazolone derivative compound was determined by reacting the compound with the triarylphosphine TXPTS and monitoring the resulting aza-ylide formation.
The procedure for determining the amount of HNO released from certain compounds from Table 1 was as follows.
Tris(4,6-dimethyl-3-sulfanatophenyl)phosphine trisodium salt (TXPTS) was of reagent grade and used without further purification. Synthetic TXPTS aza-ylide was obtained through the amidation of TXPTS using hydroxylamine O-sulfonic acid in water (Armstrong et al., Org. Lett. 7:713-716 (2005)). All other materials were of reagent grade and used without further purification.
All ^1H NMR spectra were obtained in an adjusted-to pH 7.4 solution containing 0.25 M phosphate buffer, 0.2 mM of the metal chelator diethylenetriaminepentaacetic acid (“DTPAC”), and 10% D2O on a Bruker Avance 250 MHz FT-NMR spectrometer using a 1 second presaturation pulse to suppress the water signal. To a nitrogen-purged NMR solution (1.00 mL) containing TXPTS (3.3 mg, 5 mM) was added a pyrazolone derivative compound (10 μL of 100 mM in methanol-d4) to give 1 mM as the initial concentration of the pyrazolone derivative compound. The solution was briefly mixed, about 0.5 mL was transferred to a nitrogen-purged NMR tube and an initial ^1H NMR spectrum (time=0) was obtained. Thereafter, the sample was internally incubated at 37° C. and ^1H NMR spectra were collected at regular intervals for 8 hours.
The HNO donating pyrazolone derivative compound, by-product (e.g., (III) in Scheme 1), and TXPTS aza-ylide concentrations, determined from NMR spectra taken over 8 hours, were plotted as a function of time, and each data set was fitted to a single exponential function. The NMR half-lives for the disappearance of the HNO donating pyrazolone derivative compound and the appearance of by-product and TXPTS aza-ylide were determined from the respective plots. […] A control compound, compound 7 disclosed in WO 2013/059194, was also evaluated.

A short description of data set [2]: In vitro plasma stability, dog plasma. In kind it is in vitro ADME. To be noted: male, pH 7.4, 5 μM, 37° C., sampling 0-360 minutes, read-out: T1/2 Dog. The essentials:
(§1)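 Pooled plasma at pH 7.4 with sodium heparin or citrate anticoagulant; compound at 5 μM, 37° C with shaking, triplicate samples at 0–360 min. Quenched in acetonitrile/1% formic acid with internal standard; LC-MS/MS peak-area ratios without standard curve; T1/2 from percent remaining.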

Data set [3] is described as follows: In vitro plasma stability, human plasma. The class given is in vitro ADME. The note with it: male, pH 7.4, 5 μM, 37° C., sampling 0-360 minutes, read-out: T1/2 Human. The gist of the method: as §1
Data set [4] is described as follows: Solid-state stability at 40° C. and 75% RH (purity by HPLC). In kind it is physicochemical. To be noted: solid powder; for Solid-state stability, purity by HPLC, 0 Months: 0 Months (initial); for Solid-state stability, purity by HPLC, 1 Month: in % (unit assumed). On the procedure: Solid, powdered samples of certain compounds from Table 1 were sealed in double polyethylene bags and stored at 40° C., 75% relative humidity (“RH”) for up to 3 months. A control compound, compound 7 disclosed in WO 2013/059194, was also tested. Initially and after 1 month, 2 months, and 3 months of storage, the samples were analyzed for purity, as determined by high performance liquid chromatography (“HPLC”). Additionally, certain compounds from Table 1 were admixed at a level of 50% by weight with one of the following excipients before stability testing: lactose, microcrystalline cellulose, or croscarmellose sodium. The resulting admixtures were also stored as described above then analyzed for purity of the pyrazolone derivative component, as determined by HPLC. The HPLC apparatus comprised a quaternary or binary pump, an auto sampler, a thermostated column compartment, and a UV/visible detector. The HPLC measurement conditions were as follows: • Column: Zorbax Eclipse XDB-C18, 2.1×50 mm, 3.5 μm (Agilent Technologies, Santa Clara, Calif.) • Injection Volume: 2 μL • Detection Wavelength: 220 nm • Mobile Phase A: 0.1% by volume formic acid (“FA”) in water • Mobile Phase B: 0.1% by volume FA in acetonitrile • Diluent: About 0.2 mg sample/mL acetonitrile • Gradient:
• Flow Rate: 0.8 mL/min • Column Temperature: 25° C.

The test system of another data set is normal beagle dogs. Description: Pharmacodynamic activity: systolic blood pressure decrease in telemetered dogs after oral dose. In kind it is in vivo, dog. To be noted: beagle dogs (n=3), single oral dose 30 mg/kg in PEG300, first 2 hr post-dose relative to baseline SBP. On the procedure:
The effect of certain compounds from Table 1 on blood pressure in freely moving telemetered normal beagle dogs (n=3) after single oral doses was evaluated. The animals were surgically implanted with a pressure transducer equipped telemetry transmitter. The transmitter assembly was secured internally and a fluid-filled catheter was placed into the abdominal aorta to allow for collection of cardiovascular data. To evaluate cardiovascular effects, 3 dogs were given single oral doses of a compound from Table 1 (100% PEG300 in gelatin capsules) at a concentration of 100 mg/mL and at doses of 30 mg/kg. Systemic blood pressure and heart rate were evaluated continuously for 2 hr before and for 24 hr after dosing (results not shown). To compare the pharmacodynamic activity for all tested compounds, the mean systolic blood pressure (SBP) decrease during the first 2 hr post-dose was determined relative to the baseline SBP (30-120 min pre-dose) (Table 6).

Data set [5] in a line: In vitro plasma stability, rat plasma. To be noted: male, pH 7.4, 5 μM, 37° C., sampling 0-360 minutes, read-out: T1/2 Rat. The class given is in vitro ADME. The essentials: as §1

With `CC1=NN(C)C(=O)C1(NO)c1ccccc1` (centres unmarked) [Compound 6, 4-(hydroxyamino)-2,5-dimethyl-4-phenyl-2,4-dihydro-3H-pyrazol-3-one], the half-life at 1 mM in data set [1] was 0.567 h. The results for the half-life at 5 μM in data set [2] and in data set [3] were 0.2 h and 0.633 h, respectively. The compound further had a Solid-state stability, purity by HPLC, 0 Months in data set [4] of 99.8%. In addition, the “Solid-state stability, purity by HPLC, 1 Month” value (“Solid-state stability … 1 Month” for short) in data set [4] is reported as less than 10. Moreover, in the data set on normal beagle dogs, the “Mean SBP decrease” value turned out to be 22 mmHg.
Turning to `CN1N=C(c2ccccc2F)C(C)(NO)C1=O` (centres unmarked) [Compound 3, 5-(2-fluorophenyl)-4-(hydroxyamino)-2,4-dimethyl-2,4-dihydro-3H-pyrazol-3-one], in data set [1], the half-life at 1 mM is 3.95 h. Also, the half-life at 5 μM in data set [2] is 0.467 h; in data set [5], 0.617 h; in data set [3], 0.533 h. Further, the “Mean SBP decrease” value in the data set with normal beagle dogs was 28 mmHg.
Turning to `CN1N=C(c2ccccc2Cl)C(C)(NO)C1=O` (centres unmarked) [Compound 2, 5-(2-chlorophenyl)-4-(hydroxyamino)-2,4-dimethyl-2,4-ddihydro-3H-pyrazol-3-one], the half-life at 1 mM in data set [1] is 0.833 h. Also, the half-life at 5 μM in data set [2] is 1.2 h. In data set [5], the half-life at 5 μM was 1.02 h. The half-life at 5 μM in data set [3] was determined as 0.867 h. Moreover, in data set [4], the Solid-state stability, purity by HPLC, 0 Months stood at 91.2%; the “Solid-state stability … 1 Month” value was less than 10; the Solid-state stability, purity by HPLC, 2 Months is less than 10%; the Solid-state stability, purity by HPLC, 3 Months is less than 10%. Further, in the data set on normal beagle dogs, the “Mean SBP decrease” value is 2 mmHg.
In the case of `CN1N=C(c2ccccc2)C(C)(NO)C1=O` (centres unmarked) [Compound 15, 4-(hydroxyamino)-2,4-dimethyl-5-phenyl-2,4-dihydro-3H-pyrazol-3-one], the half-life at 1 mM in data set [1] was determined as 16.8 h. In addition, the half-life at 5 μM stood at 1.67 h in data set [2], 1.12 h in data set [5] and 1.33 h in data set [3]. In addition, the Solid-state stability, purity by HPLC, 0 Months in data set [4] was 98.3%. Moreover, the “Solid-state stability … 1 Month” value in data set [4] is on record as less than 10. Moreover, the “Mean SBP decrease” value in the data set with normal beagle dogs is on record as 31 mmHg.
Regarding `CN1N=C(c2ccc(Cl)cc2)C(C)(NO)C1=O` (centres unmarked) [Compound 1, 5-(4-chlorophenyl)-4-(hydroxyamino)-2,4-dimethyl-2,4-dihydro-3H-pyrazol-3-one], the half-life at 1 mM in data set [1] was found to be 13 h. Moreover, the half-life at 5 μM in data set [2] worked out at 2.47 h. Also, in data set [5], the half-life at 5 μM is 1.33 h. In data set [3], the half-life at 5 μM was 1.4 h. In addition, in data set [4], the Solid-state stability, purity by HPLC, 0 Months came to 100%; the “Solid-state stability … 1 Month” value amounted to 99.2; the Solid-state stability, purity by HPLC, 2 Months amounted to 99.8%; the Solid-state stability, purity by HPLC, 3 Months was 99.8%. In addition, the “Mean SBP decrease” value with normal beagle dogs worked out at 3 mmHg.
In the case of `CN1N=C(c2ccc(S(C)(=O)=O)cc2)C(C)(NO)C1=O` (centres unmarked) [Compound 14, 4-(hydroxyamino)-2,4-dimethyl-5-(4-(methylsulfonyl)phenyl)-2,4-dihydro-3H-pyrazol-3-one], the half-life at 1 mM in data set [1] was 6.32 h. In addition, the half-life at 5 μM in data set [2] stood at 1.1 h. Moreover, the half-life at 5 μM in data set [5] amounted to 0.667 h. In addition, the half-life at 5 μM in data set [3] turned out to be 0.817 h. Besides, in data set [4], the Solid-state stability, purity by HPLC, 0 Months was 99.3%; the “Solid-state stability … 1 Month” value is 97.0 and 61.0; the Solid-state stability, purity by HPLC, 2 Months is 68%. Further, in the data set on normal beagle dogs, the “Mean SBP decrease” value stood at 13 mmHg.
